Earlier results on four compounds are cited in patent US11872302B2, “Product for dyeing keratinous material, containing aminosilicone, a chromophoric compound and ester oil” (Henkel AG & Co. KGaA, priority 2019, dated 2024).

For the data set the following is noted: 25° C.

With `O=S(=O)(O)c1ccc(N=Nc2c(O)ccc3ccccc23)cc1` [Acid Orange 7, 4-[(2-hydroxy-1-naphthyl)azo]benzene sulphonate], the solubility in water result is reported as “more than 7 g/L”.

With `CCN(Cc1cccc(S(=O)(=O)O)c1)c1ccc(C(=C2C=CC(=[N+](CC)Cc3cccc(S(=O)(=O)O)c3)C=C2)c2ccccc2S(=O)(=O)[O-])cc1` [Acid Blue 9], the solubility in water entry was “more than 20 wt. %”. Consider `O=[N+]([O-])c1cc([N+](=O)[O-])c2ccc(S(=O)(=O)O)cc2c1O` [Acid Yellow 9, 8-hydroxy-5,7-dinitro-2-naphthalenesulfonic acid], for which the solubility in water result is listed as “above 40 g/L”.

Take `O=C(O)C1=NN(c2ccc(S(=O)(=O)O)cc2)C(=O)C1N=Nc1ccc(S(=O)(=O)O)cc1` (stereo not shown) [Acid Yellow 23, 4,5-dihydro-5-oxo-1-(4-sulfophenyl)-4-((4-sulfophenyl)azo)-1H-pyrazole-3-carboxylic acid]: the “solubility in water, in words” value is recorded as “highly soluble in water”.
